{"source": "ChEMBL document CHEMBL5154820", "about": "(Eur J Med Chem, 2022)", "key": {"HeLa [1]": {"tested_on": "HeLa", "assay": "Induction of cell cycle arrest in human HeLa cells assessed as >4N cells at 3 nM measured after 24 hrs by propidium iodide staining based flow cytometric analysis analysis relative to control", "format": "functional"}, "HeLa [2]": {"tested_on": "HeLa", "assay": "Induction of apoptosis in human HeLa cells assessed as viable cells at 1.5 nM measured after 24 hrs by Annexin V-FITC/7-AAD staining based flow cytometric analysis (reference value: 75.5%)", "format": "functional", "settings": "read-out: Activity"}, "HeLa [3]": {"tested_on": "HeLa", "assay": "Induction of apoptosis in human HeLa cells assessed as viable cells at 3 nM measured after 24 hrs by Annexin V-FITC/7-AAD staining based flow cytometric analysis (reference value: 75.5%)", "format": "functional", "settings": "read-out: Activity"}, "HeLa [4]": {"tested_on": "HeLa", "assay": "Induction of apoptosis in human HeLa cells assessed as early apoptotic cells at 3 nM measured after 24 hrs by Annexin V-FITC/7-AAD staining based flow cytometric analysis (reference value: 18.8%)", "format": "functional"}, "HeLa [5]": {"tested_on": "HeLa", "assay": "Induction of apoptosis in human HeLa cells assessed as late apoptotic cells at 3 nM measured after 24 hrs by Annexin V-FITC/7-AAD staining based flow cytometric analysis (reference value: 5.22%)", "format": "functional"}, "HeLa [6]": {"tested_on": "HeLa", "assay": "Inhibition of colony formation in human HeLa cells at 6 nM and treated for every 48 hrs with fresh medium measured after 14 days by crystal violet staining method", "format": "functional", "parameters": "scale not given: the % may be the effect or the level left", "settings": "time 14 day"}, "Bos taurus": {"species": "Bos taurus", "assay": "Inhibition of calf brain tubulin polymerization upto 50 uM measured after 40 mins by spectrophotometric analysis", "settings": "DDE = dose-dependent effect"}, "[7]": {"target": "T1, Tubulin beta (Homo sapiens) (UniProt P68371+Q9H4B7+Q13509+P04350+Q3ZCM7+P07437+Q13885+Q9BVA1+Q9BUF5+A6NNZ2)", "assay": "Binding affinity to beta-tubulin colchicine binding site in human HeLa cells assessed as inhibition of EBI-beta-tubulin adduct formation measured at 1 to 100 uM incubated for 2 hrs followed by addition of EBI measured after 1.5 hrs by EBI competition based Western blotting analysis", "format": "cell-based", "settings": "dose 1-100 µM, time 3.5 hrs, DDE = dose-dependent effect"}, "Tubulin (Sus scrofa) [8]": {"target": "T2, Tubulin (Sus scrofa) (UniProt P02554+P02550)", "T2 sequence (P02550 whole entry, looked up)": "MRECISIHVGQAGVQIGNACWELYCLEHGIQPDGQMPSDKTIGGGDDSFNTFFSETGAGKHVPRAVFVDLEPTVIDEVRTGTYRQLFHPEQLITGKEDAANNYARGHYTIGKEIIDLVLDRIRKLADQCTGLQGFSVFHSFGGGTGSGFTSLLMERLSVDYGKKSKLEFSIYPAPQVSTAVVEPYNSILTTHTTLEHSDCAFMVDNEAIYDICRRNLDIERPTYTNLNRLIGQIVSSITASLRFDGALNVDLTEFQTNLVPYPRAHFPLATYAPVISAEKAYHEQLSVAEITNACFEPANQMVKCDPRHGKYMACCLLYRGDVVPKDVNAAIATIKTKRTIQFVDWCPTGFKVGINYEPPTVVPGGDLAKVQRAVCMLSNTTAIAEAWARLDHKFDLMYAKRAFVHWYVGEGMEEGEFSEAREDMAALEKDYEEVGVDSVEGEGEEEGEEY", "T2 sequence (P02554 whole entry, looked up)": "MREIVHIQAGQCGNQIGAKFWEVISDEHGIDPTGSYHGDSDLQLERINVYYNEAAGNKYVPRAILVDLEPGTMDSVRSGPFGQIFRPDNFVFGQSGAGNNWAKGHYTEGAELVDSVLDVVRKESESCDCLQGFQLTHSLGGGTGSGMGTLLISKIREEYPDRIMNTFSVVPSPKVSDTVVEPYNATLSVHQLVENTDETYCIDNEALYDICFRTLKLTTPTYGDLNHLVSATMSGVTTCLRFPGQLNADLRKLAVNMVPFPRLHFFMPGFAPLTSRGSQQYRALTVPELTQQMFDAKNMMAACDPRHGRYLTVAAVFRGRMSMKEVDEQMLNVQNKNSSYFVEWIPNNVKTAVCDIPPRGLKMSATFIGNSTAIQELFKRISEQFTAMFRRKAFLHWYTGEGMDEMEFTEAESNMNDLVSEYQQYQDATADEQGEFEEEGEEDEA", "assay": "Inhibition of pig brain tubulin polymerization at 3 uM by spectrophotometer analysis relative to control", "parameters": "scale not given: the % may be the effect or the level left", "settings": "Sus scrofa domesticus"}, "Tubulin (Sus scrofa) [9]": {"target": "T2, Tubulin (Sus scrofa)", "assay": "Inhibition of pig brain tubulin polymerization at 12.5 uM by spectrophotometer analysis relative to control", "parameters": "scale not given: the % may be the effect or the level left", "settings": "Sus scrofa domesticus"}, "Tubulin (Homo sapiens)": {"target": "Tubulin (Homo sapiens) (UniProt P68371+Q9H4B7+P0DPH7+P68366+Q13509+Q71U36+P04350+Q3ZCM7+P07437+P68363+Q9BQE3+Q6PEY2+Q13885+Q9BVA1+Q9BUF5)", "assay": "Induction of microtubule disruption in human HeLa cells assessed as loss of formation of cell membrane rounding at 0.1 to 0.2 uM measured after 24 hrs by DAPI staining based laser scanning confocal microscopic analysis", "settings": "dose 0.1-0.2 µM, DDE = dose-dependent effect"}, "HeLa [10]": {"tested_on": "HeLa", "assay": "Induction of cell cycle arrest in human HeLa cells assessed as S-phase at 0.1 uM measured after 24 hrs by propidium iodide staining based flow cytometric analysis analysis ( Rvb = 15.5%)", "format": "functional"}, "HeLa [11]": {"tested_on": "HeLa", "assay": "Induction of cell cycle arrest in human HeLa cells assessed as S-phase at 0.4 uM measured after 24 hrs by propidium iodide staining based flow cytometric analysis analysis ( Rvb = 15.5%)", "format": "functional"}, "HeLa [12]": {"tested_on": "HeLa", "assay": "Induction of cell cycle arrest in human HeLa cells assessed as 4N cells at 0.1 uM measured after 24 hrs by propidium iodide staining based flow cytometric analysis analysis ( Rvb = 20.3%)", "format": "functional"}, "HeLa [13]": {"tested_on": "HeLa", "assay": "Induction of cell cycle arrest in human HeLa cells assessed as 4N cells at 0.4 uM measured after 24 hrs by propidium iodide staining based flow cytometric analysis analysis ( Rvb = 20.3%)", "format": "functional"}, "HeLa [14]": {"tested_on": "HeLa", "assay": "Induction of apoptosis in human HeLa cells assessed as late apoptotic cells at 0.1 uM measured after 24 hrs by Annexin V-FITC/7-AAD staining based flow cytometric analysis (reference value: 8.51%)", "format": "functional"}, "HeLa [15]": {"tested_on": "HeLa", "assay": "Induction of apoptosis in human HeLa cells assessed as late apoptotic cells at 0.4 uM measured after 24 hrs by Annexin V-FITC/7-AAD staining based flow cytometric analysis (reference value: 8.51%)", "format": "functional"}, "HeLa [16]": {"tested_on": "HeLa", "assay": "Induction of apoptosis in human HeLa cells assessed as necrotic cells at 0.4 uM measured after 24 hrs by Annexin V-FITC/7-AAD staining based flow cytometric analysis (reference value: 0.56%)", "format": "functional"}, "[17]": {"assay": "AUC(0 to infinity) in C57 nude mouse plasma at 30 mg/kg, ip measured at 0.083 to 24 hrs by LC/MS/MS analysis", "format": "ADME, organism-based", "parameters": "time lower 0.083 hrs, dose 30 mg/kg, time upper 24 hrs, route ip"}, "[18]": {"assay": "Acute toxicity in ICR male mouse assessed as body weight gain at 100 to 1000 mg/kg, ip measured daily for 14 days", "format": "organism-based", "settings": "in vivo, 336 h, dose 100-1000 mg/kg, time 14 day"}, "hERG (KCNH2)": {"target": "hERG (KCNH2) (Homo sapiens, UniProt Q12809)", "sequence (Q12809 whole entry)": "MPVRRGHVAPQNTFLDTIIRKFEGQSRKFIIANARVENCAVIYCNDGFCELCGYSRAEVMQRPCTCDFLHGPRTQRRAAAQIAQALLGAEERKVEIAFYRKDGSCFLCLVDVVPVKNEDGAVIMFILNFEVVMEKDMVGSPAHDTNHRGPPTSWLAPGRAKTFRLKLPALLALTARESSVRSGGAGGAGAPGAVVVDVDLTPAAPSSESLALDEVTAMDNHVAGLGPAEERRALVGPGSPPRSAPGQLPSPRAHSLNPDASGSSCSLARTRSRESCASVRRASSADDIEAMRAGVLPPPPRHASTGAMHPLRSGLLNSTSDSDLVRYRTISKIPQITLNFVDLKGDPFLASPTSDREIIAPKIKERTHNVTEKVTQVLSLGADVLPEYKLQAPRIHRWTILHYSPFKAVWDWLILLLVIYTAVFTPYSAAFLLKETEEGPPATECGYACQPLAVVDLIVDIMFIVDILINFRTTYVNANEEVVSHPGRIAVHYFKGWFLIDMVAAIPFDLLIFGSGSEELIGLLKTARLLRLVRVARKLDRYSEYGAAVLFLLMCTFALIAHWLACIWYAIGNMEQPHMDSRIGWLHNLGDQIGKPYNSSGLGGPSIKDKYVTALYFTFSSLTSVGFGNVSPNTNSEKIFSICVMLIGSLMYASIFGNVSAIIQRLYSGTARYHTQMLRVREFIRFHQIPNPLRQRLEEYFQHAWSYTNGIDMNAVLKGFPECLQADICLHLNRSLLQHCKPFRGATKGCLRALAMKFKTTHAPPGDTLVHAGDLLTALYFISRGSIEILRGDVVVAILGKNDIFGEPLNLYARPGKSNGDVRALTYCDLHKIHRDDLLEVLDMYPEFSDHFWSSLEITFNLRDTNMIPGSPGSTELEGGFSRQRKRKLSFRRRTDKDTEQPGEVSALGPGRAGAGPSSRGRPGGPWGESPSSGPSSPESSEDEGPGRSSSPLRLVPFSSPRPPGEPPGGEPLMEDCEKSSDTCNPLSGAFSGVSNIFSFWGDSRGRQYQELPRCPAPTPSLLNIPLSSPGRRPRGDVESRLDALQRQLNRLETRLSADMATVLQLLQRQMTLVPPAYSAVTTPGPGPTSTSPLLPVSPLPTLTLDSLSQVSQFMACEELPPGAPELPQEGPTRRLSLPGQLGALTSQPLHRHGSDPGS", "assay": "Inhibition of human ERG expressed in CHO cells at 40 uM with holding potential of -80 mV by whole cell patch clamp assay relative to control", "format": "toxicity, cell-based", "settings": "CHO cells that express hERG"}, "HeLa [19]": {"tested_on": "HeLa", "assay": "Antitumor activity against human HeLa cells xenografted in BABL/c mouse assessed as tumor growth inhibition at 30 mg/kg, ip administered daily for 21 days relative to control", "format": "functional", "settings": "504 h, time 21 day, read-out: TGI"}, "HeLa [20]": {"tested_on": "HeLa", "assay": "Antitumor activity against human HeLa cells xenografted in BABL/c mouse assessed assessed as reduction in tumor volume at 30 mg/kg, ip administered daily for 21 days followed by addition of 3 mg/kg DDP for every 2 days and measured every 3 days ( Rvb = 2336 mm3)", "format": "functional", "settings": "time 21 day"}, "[21]": {"assay": "Toxicity in BABL/c mouse xenografted with human HeLa cells assessed as body weight gain at 30 mg/kg, ip administered daily for 21 days followed by addition of 3 mg/kg DDP for every 2 days and measured every 3 days", "format": "organism-based", "settings": "in vivo, 504 h, time 21 day"}, "HeLa [22]": {"tested_on": "HeLa", "assay": "Antitumour activity against human HeLa cells xenografted in BABL/c mouse assessed as reduction in tumor weight at 30 mg/kg, ip administered daily for 21 days followed by addition of 3 mg/kg DDP for every 2 days ( Rvb = 3.36 g)", "format": "functional", "settings": "time 21 day, 504 h"}, "HeLa [23]": {"tested_on": "HeLa", "assay": "Antitumour activity against human HeLa cells xenografted in BABL/c mouse assessed as reduction in tumor weight at 60 mg/kg, ip administered daily for 21 days ( Rvb = 3.36 g)", "format": "functional", "settings": "time 21 day"}, "[24]": {"assay": "Toxicity against BABL/c mouse assessed as morphological changes in lung at 30 mg/kg, ip administered daily for 21 days followed by addition of 3 mg/kg DDP for every 2 days by H and E staining method", "format": "organism-based", "settings": "in vivo, 504 h, time 21 day"}, "HeLa [25]": {"tested_on": "HeLa", "assay": "Potency index, ratio of cisplatin IC50 to test compound IC50 for cytotoxicity against human DDP resistant HeLa cells", "format": "functional"}, "[26]": {"target": "T1, Tubulin beta (Homo sapiens)", "assay": "Binding affinity to beta-tubulin colchicine binding site in human HeLa cells assessed as decrease of adduct formation by measuring gray value measured at 1 uM incubated for 2 hrs followed by addition of EBI measured after 1.5 hrs by EBI competition based Western blotting analysis", "format": "cell-based", "settings": "time 3.5 hrs"}}}
{"smiles": "COc1ccc(/C=C\\c2cc(OC)c(OC)c(OC)c2)cc1O", "note": "[COMBRETASTATIN A4]", "values": [{"measurement": "Activity", "setting": "HeLa [1]", "result": 17, "unit": "%"}, {"measurement": "viability at 0.0015 µM", "setting": "HeLa [2]", "result": 68.9, "unit": "%"}, {"measurement": "viability at 0.003 µM", "setting": "HeLa [3]", "result": 44.7, "unit": "%"}, {"measurement": "Activity", "setting": "HeLa [4]", "result": 43.8, "unit": "%"}, {"measurement": "Activity", "setting": "HeLa [5]", "result": 10.8, "unit": "%"}, {"measurement": "Activity", "setting": "HeLa [6]", "result": 100, "unit": "%"}, {"measurement": "inhibition", "setting": "Bos taurus", "result": "Dde"}]}
{"smiles": "CCOc1ccc(-c2cncnc2-c2cc(OC)c(OC)c(OC)c2)cc1Cl", "values": [{"measurement": "Activity", "setting": "[7]", "result": "Dde"}, {"measurement": "Activity", "setting": "Tubulin (Sus scrofa) [8]", "result": 39, "unit": "%"}, {"measurement": "Activity", "setting": "Tubulin (Sus scrofa) [9]", "result": 77, "unit": "%"}, {"measurement": "Activity", "setting": "Tubulin (Homo sapiens)", "result": "Dde"}, {"measurement": "Activity", "setting": "HeLa [10]", "result": 13, "unit": "%"}, {"measurement": "Activity", "setting": "HeLa [11]", "result": 11.4, "unit": "%"}, {"measurement": "Activity", "setting": "HeLa [12]", "result": 24.7, "unit": "%"}, {"measurement": "Activity", "setting": "HeLa [13]", "result": 71.7, "unit": "%"}, {"measurement": "Activity", "setting": "HeLa [14]", "result": 7.29, "unit": "%"}, {"measurement": "Activity", "setting": "HeLa [15]", "result": 3.98, "unit": "%"}, {"measurement": "Activity", "setting": "HeLa [16]", "result": 0.11, "unit": "%"}, {"measurement": "AUC(0-inf)", "setting": "[17]", "result": 5940, "unit": "ng·h/mL"}, {"measurement": "Activity", "setting": "[18]", "result": 8.1, "unit": "g"}, {"measurement": "inhibition at 40 µM", "setting": "hERG (KCNH2)", "result": 65, "unit": "%"}, {"measurement": "inhibition in vivo at 30 mg/kg", "setting": "HeLa [19]", "result": 35, "unit": "%"}, {"measurement": "Activity", "setting": "HeLa [20]", "result": 724, "unit": "mm3"}, {"measurement": "Activity", "setting": "[21]", "result": "Non-Toxic"}, {"measurement": "Activity", "setting": "HeLa [22]", "result": 2.18, "unit": "g"}, {"measurement": "Activity", "setting": "HeLa [23]", "result": 1.42, "unit": "g"}, {"measurement": "Activity", "setting": "[24]", "result": "Non-Toxic"}, {"measurement": "Ratio IC50", "setting": "HeLa [25]", "result": 2.7}, {"measurement": "Activity", "setting": "[26]", "result": 0.53}]}
